# Patent USRE49735E1 (BRISTOL-MYERS SQUIBB COMPANY, priority 2010, dated 2023)
# Several values for one entry are separate records, joined by “and”; a condition that tells them apart may be missing. Equal entries are not always repeated.
# Target: human mGluR5A (Homo sapiens, UniProt P41594)
# Assay: mGluR5 FLIPR Assay
# Assay type: cell-based
# Conditions: positive modulator activity; HEK293 (ZF) cells with human mGluR5A and rat GLAST; Ca++ response to ~EC10 glutamate
# Protocol: HEK293 (ZF) cells stably transfected with human mGluR5A (pIRES neo) and the rat glutamate-aspartate transporter (GLAST; pIRES puro) are grown in a monolayer culture at 37° C. in 5% CO2 and fed with Minimum Essential Medium (MEM) supplemented with 10% dialysed fetal bovine serum. 24 hours prior to assay, cells are enzymatically dissociated from the culture flask (Trypsin, 0.25%), spun down (1000 rpm, 3 min), resuspended, and plated on Greiner black clear bottomed PDL-coated 384-well plates at a density of 30 thousand cells/well. […] Plates are incubated in dye at 37° C. in 5% CO2 for 60 minutes prior to delivery of test compounds in assay buffer. Test compounds are incubated with cells in the presence of dye for 10 minutes prior to being read on the FLIPR platform (Molecular Devices). A Ca^++ signal is induced in the assay plates via the delivery of an ˜EC10 concentration of the endogenous agonist 1-glutamate; images are acquired at 1 Hz for 100 seconds post-delivery of agonist stimulus. Positive modulator activity (i.e. the ability of test compounds to increase the Ca^++ response to a sub-maximal concentration of agonist) is normalized to a saturating concentration of a known mGluR5 PAM run in each assay plate. An EC50 concentration of test compounds is derived from 4-parameter logistic curve fits of transformed fluoresence data via proprietary software suite.
# Sequence of human mGluR5A (P41594 21-1180 isoform P41594-2): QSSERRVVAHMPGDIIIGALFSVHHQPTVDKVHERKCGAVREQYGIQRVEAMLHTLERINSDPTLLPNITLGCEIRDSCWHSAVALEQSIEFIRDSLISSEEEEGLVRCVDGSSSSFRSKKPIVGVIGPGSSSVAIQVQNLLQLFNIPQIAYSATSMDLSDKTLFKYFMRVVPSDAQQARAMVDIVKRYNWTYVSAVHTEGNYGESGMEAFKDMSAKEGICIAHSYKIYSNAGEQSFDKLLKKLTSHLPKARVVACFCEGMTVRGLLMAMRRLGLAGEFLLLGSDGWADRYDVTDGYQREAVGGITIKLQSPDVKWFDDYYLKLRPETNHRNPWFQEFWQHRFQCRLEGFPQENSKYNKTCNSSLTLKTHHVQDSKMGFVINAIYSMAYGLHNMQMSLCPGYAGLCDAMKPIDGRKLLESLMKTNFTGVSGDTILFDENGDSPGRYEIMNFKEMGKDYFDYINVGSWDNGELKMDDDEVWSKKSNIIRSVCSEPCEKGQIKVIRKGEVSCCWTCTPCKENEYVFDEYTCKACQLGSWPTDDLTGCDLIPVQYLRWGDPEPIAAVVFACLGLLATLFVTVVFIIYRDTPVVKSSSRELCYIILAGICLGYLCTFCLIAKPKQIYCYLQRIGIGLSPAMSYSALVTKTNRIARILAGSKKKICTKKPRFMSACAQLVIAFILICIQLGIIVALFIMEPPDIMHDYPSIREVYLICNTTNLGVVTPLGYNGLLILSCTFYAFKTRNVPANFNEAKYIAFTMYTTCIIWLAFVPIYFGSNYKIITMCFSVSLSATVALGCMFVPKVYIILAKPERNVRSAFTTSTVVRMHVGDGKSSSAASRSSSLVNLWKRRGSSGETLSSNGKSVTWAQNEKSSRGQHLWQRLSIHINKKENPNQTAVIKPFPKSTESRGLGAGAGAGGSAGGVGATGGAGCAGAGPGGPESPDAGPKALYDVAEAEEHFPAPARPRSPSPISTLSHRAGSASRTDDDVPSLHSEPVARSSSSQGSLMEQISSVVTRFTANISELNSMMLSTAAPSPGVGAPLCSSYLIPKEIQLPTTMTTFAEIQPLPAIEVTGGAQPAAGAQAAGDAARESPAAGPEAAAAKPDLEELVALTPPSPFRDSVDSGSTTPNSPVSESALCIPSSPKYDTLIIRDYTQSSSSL
row,EC50,Structure (SMILES)
1,> 1000 nM,"Cc1cccc([C@@H]2OC(=O)N[C@@H]2c2cccc(C#Cc3ccccc3)c2)c1 (racemic) [Example 98, cis-4-(3-(phenylethynyl)phenyl)-5-m-tolyloxazolidin-2-one]"
2,< 100 nM,"Cc1cccc([C@@H]2OC(=O)N[C@H]2c2cccc(C#Cc3ccccc3)c2)c1 (racemic) [Example 99, trans-4-(3-(phenylethynyl)phenyl)-5-m-tolyloxazolidin-2-one]"
3,100 to 1000 nM,"Cc1ccc([C@@H]2OC(=O)N[C@H]2c2cccc(C#Cc3ccccc3)c2)cc1C (racemic) [Example 100, Trans-5-(3,4-dimethylphenyl)-4-(3-(phenylethynyl)phenyl)oxazolidin-2-one]"
4,< 100 nM,"O=C1N[C@@H](c2cccc(C#Cc3ccccc3)c2)[C@H](c2cccs2)O1 (racemic) [Example 103, trans-4-(3-(phenylethynyl)phenyl)-5-(thiophen-2-yl)oxazolidin-2-one]"
5,< 100 nM,"Cc1ccc([C@@H]2OC(=O)N[C@H]2c2cccc(C#Cc3ccccc3)c2)cc1 (racemic) [Example 106, (±)-(phenylethynyl)phenyl)-5-p-tolyloxazolidin-2-one]"
6,< 100 nM,"O=C1N[C@H](c2cccc(C#Cc3ccccc3)c2)[C@@H](c2cccc(F)c2)O1 (racemic) [Example 111, Trans-5-(3-fluorophenyl)-4-(3-(phenylethynyl)phenyl)oxazolidin-2-one]"
7,> 1000 nM,O=C1N[C@H](c2ccnc(C#Cc3ccccc3)n2)[C@@H](c2cc(F)ccc2F)O1 (racemic) [Example 270]
8,> 1000 nM,O=C1N[C@H](c2cc(C#Cc3ccccc3)ncn2)[C@@H](c2cccc(F)c2)O1 (racemic) [Example 271]
9,> 1000 nM,O=C1N[C@H](c2nccc(C#Cc3ccccc3)n2)[C@@H](c2cccc(F)c2)O1 (racemic) [Example 272]
10,100 to 1000 nM and 688 nM,"O=C1N[C@H](c2cncc(C#Cc3ccccc3)c2)[C@H](c2ncco2)O1 (racemic) [Example 337, (±)-(4R,5R)-5-(Oxazol-2-yl)-4-(5-(phenylethynyl)pyridin-3-yl)oxazolidin-2-one]"
11,< 100 nM,"C[C@]1(c2cncc(C#Cc3ccccc3)c2)NC(=O)O[C@H]1c1cc(F)ccc1F (racemic) [Example 405, (+/−)-5-(2,5-Difluorophenyl)-4-methyl-4-(5-(phenylethynyl)pyridin-3-yl)oxazolidin-2-one]"
12,< 100 nM,"O=C1N[C@@H](c2cccc(C#Cc3ccccc3)c2)[C@H](c2cccnc2)O1 (relative stereo) [Example 116, Trans-4-(3-(phenylethynyl)phenyl)-5-(pyridin-3-yl)oxazolidin-2-one]"
13,100 to 1000 nM and 283 nM,"COc1cccc([C@@H]2OC(=O)N[C@@H]2c2cccc(C#Cc3ccccc3)c2)c1 (single isomer, unassigned) [Example 3]"
14,> 30000 nM,"COc1cccc([C@H]2OC(=O)N[C@H]2c2cccc(C#Cc3ccccc3)c2)c1 (single isomer, unassigned) [Example 4]"
15,< 100 nM,"COc1cccc([C@H]2OC(=O)N[C@@H]2c2cccc(C#Cc3ccccc3)n2)c1 (single isomer, unassigned) [Example 5]"
16,> 1000 nM,"COc1cccc([C@@H]2OC(=O)N[C@H]2c2cccc(C#Cc3ccccc3)n2)c1 (single isomer, unassigned) [Example 6]"
17,< 100 nM,"O=C1N[C@H](c2cccc(C#Cc3ccccc3)n2)[C@@H](c2ccccc2)O1 (single isomer, unassigned) [Example 10]"
18,> 1000 nM,"O=C1N[C@@H](c2cccc(C#Cc3ccccc3)n2)[C@H](c2ccccc2)O1 (single isomer, unassigned) [Example 11]"
19,> 1000 nM,"O=C1N[C@@H](c2cccc(C#Cc3cccc(F)c3)n2)[C@H](c2ccccc2)O1 (single isomer, unassigned) [Example 13]"
20,> 1000 nM,"O=C1N[C@H](c2cccc(C#Cc3ccccc3F)n2)[C@@H](c2ccccc2)O1 (single isomer, unassigned) [Example 14]"
21,> 1000 nM,"O=C1N[C@@H](c2cccc(C#Cc3ccccc3F)n2)[C@H](c2ccccc2)O1 (single isomer, unassigned) [Example 15]"
22,< 100 nM,"O=C1N[C@H](c2cccc(C#Cc3ccc(F)cc3)n2)[C@@H](c2ccccc2)O1 (single isomer, unassigned) [Example 16]"
23,> 1000 nM,"O=C1N[C@@H](c2cccc(C#Cc3ccc(F)cc3)n2)[C@H](c2ccccc2)O1 (single isomer, unassigned) [Example 17]"
24,> 30000 nM,"O=C1N[C@H](c2cc(C#Cc3ccccc3)ccn2)[C@@H](c2ccccc2)O1 (single isomer, unassigned) [Example 18]"
25,> 1000 nM,"O=C1N[C@@H](c2cc(C#Cc3ccccc3)ccn2)[C@H](c2ccccc2)O1 (single isomer, unassigned) [Example 19]"
26,> 1000 nM,"O=C1N[C@H](c2cccc(C#Cc3ccccn3)n2)[C@@H](c2ccccc2)O1 (single isomer, unassigned) [Example 24]"

row,EC50,Structure (SMILES)
1,> 1000 nM,"O=C1N[C@@H](c2cccc(C#Cc3ccccn3)n2)[C@H](c2ccccc2)O1 (single isomer, unassigned) [Example 25]"
2,100 to 1000 nM and 367 nM,"O=C1N[C@H](c2cccc(C#Cc3cccnc3)n2)[C@@H](c2ccccc2)O1 (single isomer, unassigned) [Example 26]"
3,> 1000 nM,"O=C1N[C@@H](c2cccc(C#Cc3cccnc3)n2)[C@H](c2ccccc2)O1 (single isomer, unassigned) [Example 27]"
4,> 1000 nM,"COc1cccc([C@@H]2OC(=O)N[C@H]2c2cncc(C#Cc3ccccn3)c2)c1 (single isomer, unassigned) [Example 28]"
5,> 1000 nM,"COc1cccc([C@H]2OC(=O)N[C@@H]2c2cncc(C#Cc3ccccn3)c2)c1 (single isomer, unassigned) [Example 29]"
6,> 1000 nM,"COc1cccc([C@@H]2OC(=O)N[C@H]2c2cncc(C#Cc3csc(C)n3)c2)c1 (single isomer, unassigned) [Example 30]"
7,> 1000 nM,"COc1cccc([C@H]2OC(=O)N[C@@H]2c2cncc(C#Cc3csc(C)n3)c2)c1 (single isomer, unassigned) [Example 31]"
8,> 1000 nM,"COc1cccc([C@@H]2OC(=O)N[C@H]2c2cncc(C#Cc3ccccc3)c2)c1 (single isomer, unassigned) [Example 32]"
9,< 100 nM,"COc1cccc([C@H]2OC(=O)N[C@@H]2c2cncc(C#Cc3ccccc3)c2)c1 (single isomer, unassigned) [Example 33]"
10,> 1000 nM,"COc1cccc([C@H]2OC(=O)N[C@@H]2c2ccnc(C#Cc3ccccc3)c2)c1 (single isomer, unassigned) [Example 36]"
11,< 100 nM,"COc1cccc([C@@H]2OC(=O)N[C@H]2c2ccnc(C#Cc3ccccc3)c2)c1 (single isomer, unassigned) [Example 37]"
12,> 1000 nM,"O=C1N[C@H](c2cncc(C#Cc3ccccc3)c2)[C@@H](c2ccccc2)O1 (single isomer, unassigned) [Example 38]"
13,< 100 nM,"O=C1N[C@@H](c2cncc(C#Cc3ccccc3)c2)[C@H](c2ccccc2)O1 (single isomer, unassigned) [Example 39]"
14,> 1000 nM,"O=C1N[C@@H](c2cncc(C#Cc3ccccc3)c2)[C@H](c2ccc(F)cc2)O1 (single isomer, unassigned) [Example 40]"
15,< 100 nM,"O=C1N[C@H](c2cncc(C#Cc3ccccc3)c2)[C@@H](c2ccc(F)cc2)O1 (single isomer, unassigned) [Example 41]"
16,> 1000 nM,"O=C1N[C@@H](c2cncc(C#Cc3cccnc3)c2)[C@H](c2ccc(F)cc2)O1 (single isomer, unassigned) [Example 42]"
17,< 100 nM,"O=C1N[C@H](c2cncc(C#Cc3cccnc3)c2)[C@@H](c2ccc(F)cc2)O1 (single isomer, unassigned) [Example 43]"
18,> 1000 nM,"O=C1N[C@@H](c2cncc(C#Cc3cncc(F)c3)c2)[C@H](c2ccc(F)cc2)O1 (single isomer, unassigned) [Example 44]"
19,< 100 nM and 3.8 nM,"O=C1N[C@H](c2cncc(C#Cc3cncc(F)c3)c2)[C@@H](c2ccc(F)cc2)O1 (single isomer, unassigned) [Example 45]"
20,< 100 nM,"O=C1N[C@H](c2cccc(C#Cc3ccccc3)c2)[C@@H](c2ccccc2)O1 (single isomer, unassigned) [Example 95]"
21,100 to 1000 nM,"O=C1N[C@@H](c2cccc(C#Cc3ccccc3)c2)[C@H](c2ccccc2)O1 (single isomer, unassigned) [Example 96]"
22,> 1000 nM,"Cc1ccc([C@@H]2OC(=O)N[C@H]2c2cccc(C#Cc3ccccc3)c2)cc1C (single isomer, unassigned) [Example 102]"
23,< 100 nM,"O=C1N[C@H](c2cccc(C#Cc3ccccc3)c2)C(c2cccs2)O1 (single isomer, unassigned) [Example 104]"
24,> 30000 nM,"O=C1N[C@@H](c2cccc(C#Cc3ccccc3)c2)[C@H](c2cccs2)O1 (single isomer, unassigned) [Example 105]"
25,< 100 nM,"O=C1N[C@H](c2cccc(C#Cc3ccccc3)c2)[C@@H](c2ccc(F)cc2)O1 (single isomer, unassigned) [Example 114]"
26,< 100 nM and 8.5 nM,"O=C1N[C@H](c2cccc(C#Cc3ccccc3)n2)[C@@H](c2ccc(F)cc2)O1 (single isomer, unassigned) [Example 135]"
